Activity calls are given as the source filed them. For most assays here, no stated cut-off is given here; in the data, actives have a measured Kd and inactives only a lower limit.
Legend:
[1] = target: T1, Dual specificity mitogen-activated protein kinase kinase 5 (Homo sapiens, UniProt Q13163)
T1 sequence (Q13163 whole entry): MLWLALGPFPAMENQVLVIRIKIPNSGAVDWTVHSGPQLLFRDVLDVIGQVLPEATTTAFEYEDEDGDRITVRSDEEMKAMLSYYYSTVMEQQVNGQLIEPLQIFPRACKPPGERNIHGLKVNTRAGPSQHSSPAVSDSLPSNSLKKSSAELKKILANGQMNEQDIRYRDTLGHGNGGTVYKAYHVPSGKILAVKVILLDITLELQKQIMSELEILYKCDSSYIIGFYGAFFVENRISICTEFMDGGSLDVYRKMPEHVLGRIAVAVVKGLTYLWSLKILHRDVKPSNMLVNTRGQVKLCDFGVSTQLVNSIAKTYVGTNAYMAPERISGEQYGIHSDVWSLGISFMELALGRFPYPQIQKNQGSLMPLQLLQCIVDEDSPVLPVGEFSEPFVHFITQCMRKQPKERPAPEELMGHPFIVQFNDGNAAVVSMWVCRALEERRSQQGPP

TGF-beta receptor type-2 = TGF-beta receptor type-2 (Homo sapiens, UniProt P37173)
Chain of TGF-beta receptor type-2 (P37173 whole entry): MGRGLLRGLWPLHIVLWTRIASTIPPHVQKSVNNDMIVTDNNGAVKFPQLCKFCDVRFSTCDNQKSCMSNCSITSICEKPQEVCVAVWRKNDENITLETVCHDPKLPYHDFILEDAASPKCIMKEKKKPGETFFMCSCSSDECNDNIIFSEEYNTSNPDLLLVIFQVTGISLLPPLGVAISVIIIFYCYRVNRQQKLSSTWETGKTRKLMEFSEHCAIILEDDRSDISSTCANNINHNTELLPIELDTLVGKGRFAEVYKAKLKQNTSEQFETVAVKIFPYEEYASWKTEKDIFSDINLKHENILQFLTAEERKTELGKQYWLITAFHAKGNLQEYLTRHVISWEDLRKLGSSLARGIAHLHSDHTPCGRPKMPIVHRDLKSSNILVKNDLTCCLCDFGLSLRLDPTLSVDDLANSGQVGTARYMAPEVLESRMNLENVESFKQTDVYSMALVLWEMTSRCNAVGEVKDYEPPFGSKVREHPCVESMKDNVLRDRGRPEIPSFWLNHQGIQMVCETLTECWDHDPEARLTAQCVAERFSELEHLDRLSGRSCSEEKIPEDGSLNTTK

Wee1-like protein kinase = Wee1-like protein kinase (Homo sapiens, UniProt P30291)
Chain of Wee1-like protein kinase (P30291 whole entry): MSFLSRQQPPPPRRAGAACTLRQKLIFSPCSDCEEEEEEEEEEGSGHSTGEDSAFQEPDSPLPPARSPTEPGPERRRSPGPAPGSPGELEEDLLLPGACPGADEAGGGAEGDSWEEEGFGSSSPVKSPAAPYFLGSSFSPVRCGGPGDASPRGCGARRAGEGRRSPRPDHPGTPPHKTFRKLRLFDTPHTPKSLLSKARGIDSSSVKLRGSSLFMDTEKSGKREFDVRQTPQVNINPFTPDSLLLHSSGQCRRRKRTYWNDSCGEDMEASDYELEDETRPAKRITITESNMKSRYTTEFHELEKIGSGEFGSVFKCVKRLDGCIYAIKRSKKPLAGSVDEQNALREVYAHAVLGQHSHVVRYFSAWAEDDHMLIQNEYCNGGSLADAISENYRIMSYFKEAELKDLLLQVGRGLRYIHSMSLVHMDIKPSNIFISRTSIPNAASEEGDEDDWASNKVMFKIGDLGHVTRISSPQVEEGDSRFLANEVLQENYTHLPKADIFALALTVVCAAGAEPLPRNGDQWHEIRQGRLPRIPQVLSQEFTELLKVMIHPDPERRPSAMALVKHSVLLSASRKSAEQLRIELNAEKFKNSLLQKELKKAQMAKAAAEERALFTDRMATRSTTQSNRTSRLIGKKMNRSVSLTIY

[2] = target: T2, Peroxisomal acyl-coenzyme A oxidase 1 (Homo sapiens, UniProt Q15067)
T2 sequence (Q15067 whole entry): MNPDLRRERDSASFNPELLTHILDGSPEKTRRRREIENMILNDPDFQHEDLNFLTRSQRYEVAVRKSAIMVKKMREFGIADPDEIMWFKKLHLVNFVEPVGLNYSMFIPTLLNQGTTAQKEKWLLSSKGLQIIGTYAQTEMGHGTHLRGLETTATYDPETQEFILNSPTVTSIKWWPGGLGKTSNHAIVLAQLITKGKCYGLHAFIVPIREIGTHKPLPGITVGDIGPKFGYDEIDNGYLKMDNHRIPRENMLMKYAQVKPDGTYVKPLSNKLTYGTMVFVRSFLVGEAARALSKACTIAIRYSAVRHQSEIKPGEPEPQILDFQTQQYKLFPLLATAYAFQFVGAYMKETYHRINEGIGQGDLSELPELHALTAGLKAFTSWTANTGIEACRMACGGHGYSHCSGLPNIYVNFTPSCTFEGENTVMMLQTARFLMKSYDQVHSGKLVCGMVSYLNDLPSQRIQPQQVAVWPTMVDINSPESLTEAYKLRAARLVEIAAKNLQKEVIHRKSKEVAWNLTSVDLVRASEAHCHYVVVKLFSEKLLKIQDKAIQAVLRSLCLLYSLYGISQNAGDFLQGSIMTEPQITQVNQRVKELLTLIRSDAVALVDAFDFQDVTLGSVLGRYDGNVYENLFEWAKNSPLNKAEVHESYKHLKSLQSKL

[3] = target: T3, Serine/threonine-protein kinase 4 (Homo sapiens, UniProt Q13043)
T3 sequence (Q13043 whole entry): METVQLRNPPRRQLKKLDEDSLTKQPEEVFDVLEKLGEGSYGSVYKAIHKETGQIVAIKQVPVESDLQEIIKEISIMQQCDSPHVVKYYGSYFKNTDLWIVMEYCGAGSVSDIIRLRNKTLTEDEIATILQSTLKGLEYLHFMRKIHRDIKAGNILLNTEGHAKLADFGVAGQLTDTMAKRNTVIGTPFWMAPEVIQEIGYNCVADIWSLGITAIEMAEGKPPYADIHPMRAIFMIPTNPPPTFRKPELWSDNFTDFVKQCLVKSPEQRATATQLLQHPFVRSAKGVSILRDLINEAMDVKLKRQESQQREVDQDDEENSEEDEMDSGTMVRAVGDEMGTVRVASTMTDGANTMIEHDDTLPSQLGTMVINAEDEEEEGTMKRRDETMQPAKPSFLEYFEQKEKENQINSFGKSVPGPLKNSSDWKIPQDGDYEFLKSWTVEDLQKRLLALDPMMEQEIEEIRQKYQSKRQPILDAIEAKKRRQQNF

[4] = target: Dual specificity tyrosine-phosphorylation-regulated kinase 1A (Homo sapiens, UniProt Q13627)
[5] = target: AP2-associated protein kinase 1 (Homo sapiens, UniProt Q2M2I8)
Chain of AP2-associated protein kinase 1 (Q2M2I8 whole entry): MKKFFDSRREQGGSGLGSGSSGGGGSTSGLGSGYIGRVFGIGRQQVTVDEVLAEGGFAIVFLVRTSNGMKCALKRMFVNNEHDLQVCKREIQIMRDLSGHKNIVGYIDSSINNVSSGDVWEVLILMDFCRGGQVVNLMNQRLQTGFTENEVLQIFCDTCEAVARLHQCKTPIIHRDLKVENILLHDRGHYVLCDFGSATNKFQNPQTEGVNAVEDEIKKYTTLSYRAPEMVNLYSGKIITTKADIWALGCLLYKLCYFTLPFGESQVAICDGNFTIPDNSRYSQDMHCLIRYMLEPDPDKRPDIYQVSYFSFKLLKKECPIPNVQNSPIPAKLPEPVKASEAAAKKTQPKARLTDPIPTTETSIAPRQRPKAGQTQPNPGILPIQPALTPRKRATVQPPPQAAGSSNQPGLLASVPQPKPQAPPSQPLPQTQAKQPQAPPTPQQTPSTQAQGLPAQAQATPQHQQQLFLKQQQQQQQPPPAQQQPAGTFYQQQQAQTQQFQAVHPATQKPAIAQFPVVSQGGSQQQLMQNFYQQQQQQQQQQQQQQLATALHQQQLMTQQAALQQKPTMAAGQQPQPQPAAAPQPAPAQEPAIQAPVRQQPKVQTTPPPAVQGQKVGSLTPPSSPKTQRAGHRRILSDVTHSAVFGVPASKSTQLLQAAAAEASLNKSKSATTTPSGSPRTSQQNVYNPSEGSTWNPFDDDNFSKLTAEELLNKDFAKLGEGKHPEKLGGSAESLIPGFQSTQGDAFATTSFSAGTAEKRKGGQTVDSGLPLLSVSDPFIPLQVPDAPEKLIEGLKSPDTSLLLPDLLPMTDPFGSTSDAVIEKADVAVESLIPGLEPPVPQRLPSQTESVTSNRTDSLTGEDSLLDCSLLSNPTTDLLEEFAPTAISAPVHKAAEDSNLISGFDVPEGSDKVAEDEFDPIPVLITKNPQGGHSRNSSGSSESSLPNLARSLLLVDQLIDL

[6] = target: Tyrosine-protein kinase FRK (Homo sapiens, UniProt P42685)
Chain of Tyrosine-protein kinase FRK (P42685 whole entry): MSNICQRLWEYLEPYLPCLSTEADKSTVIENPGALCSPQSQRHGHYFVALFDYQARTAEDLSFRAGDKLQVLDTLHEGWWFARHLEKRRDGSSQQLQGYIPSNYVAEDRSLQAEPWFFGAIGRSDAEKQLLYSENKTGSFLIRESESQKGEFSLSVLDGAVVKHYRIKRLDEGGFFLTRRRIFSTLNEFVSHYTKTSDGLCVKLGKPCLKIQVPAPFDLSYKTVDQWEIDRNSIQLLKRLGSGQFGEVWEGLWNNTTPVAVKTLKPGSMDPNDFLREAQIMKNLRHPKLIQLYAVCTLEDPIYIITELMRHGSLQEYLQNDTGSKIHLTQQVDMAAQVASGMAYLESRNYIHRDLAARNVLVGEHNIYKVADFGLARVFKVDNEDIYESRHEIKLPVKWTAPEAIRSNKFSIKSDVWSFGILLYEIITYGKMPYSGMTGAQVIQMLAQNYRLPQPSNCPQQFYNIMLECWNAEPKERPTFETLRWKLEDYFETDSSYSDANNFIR

[7] = target: Mitogen-activated protein kinase kinase kinase kinase 4 (Homo sapiens, UniProt O95819)
Chain of Mitogen-activated protein kinase kinase kinase kinase 4 (O95819 whole entry): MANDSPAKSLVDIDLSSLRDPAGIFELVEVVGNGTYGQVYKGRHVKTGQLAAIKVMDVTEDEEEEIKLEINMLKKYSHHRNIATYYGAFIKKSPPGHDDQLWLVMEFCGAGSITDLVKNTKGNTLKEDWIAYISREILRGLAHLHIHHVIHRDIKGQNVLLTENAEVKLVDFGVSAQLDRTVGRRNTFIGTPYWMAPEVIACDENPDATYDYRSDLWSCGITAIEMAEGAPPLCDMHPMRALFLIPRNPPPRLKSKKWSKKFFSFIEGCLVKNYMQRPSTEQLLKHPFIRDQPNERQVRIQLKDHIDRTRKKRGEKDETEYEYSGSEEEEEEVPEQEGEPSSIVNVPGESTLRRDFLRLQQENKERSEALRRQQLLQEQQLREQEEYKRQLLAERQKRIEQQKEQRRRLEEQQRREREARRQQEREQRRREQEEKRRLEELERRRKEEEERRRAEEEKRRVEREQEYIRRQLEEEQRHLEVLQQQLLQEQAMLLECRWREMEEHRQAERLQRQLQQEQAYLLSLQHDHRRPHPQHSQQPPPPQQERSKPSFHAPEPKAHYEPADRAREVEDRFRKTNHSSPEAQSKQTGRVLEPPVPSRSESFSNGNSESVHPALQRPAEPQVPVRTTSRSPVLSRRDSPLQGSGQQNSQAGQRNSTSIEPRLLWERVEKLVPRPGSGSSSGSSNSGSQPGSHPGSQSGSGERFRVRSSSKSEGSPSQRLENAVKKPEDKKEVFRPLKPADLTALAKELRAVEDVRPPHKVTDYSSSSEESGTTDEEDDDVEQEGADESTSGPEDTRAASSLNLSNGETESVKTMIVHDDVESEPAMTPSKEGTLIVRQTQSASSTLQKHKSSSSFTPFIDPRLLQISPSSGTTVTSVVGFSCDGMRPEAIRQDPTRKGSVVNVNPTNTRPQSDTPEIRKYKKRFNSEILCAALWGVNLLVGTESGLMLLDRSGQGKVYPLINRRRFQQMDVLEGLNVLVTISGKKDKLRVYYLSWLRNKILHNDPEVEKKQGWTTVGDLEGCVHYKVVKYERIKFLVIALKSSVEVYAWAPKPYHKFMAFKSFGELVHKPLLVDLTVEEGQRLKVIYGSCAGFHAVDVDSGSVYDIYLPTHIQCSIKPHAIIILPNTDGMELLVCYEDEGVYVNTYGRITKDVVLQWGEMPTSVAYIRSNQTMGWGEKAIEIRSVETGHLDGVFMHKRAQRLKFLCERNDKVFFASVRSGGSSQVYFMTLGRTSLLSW

[8] = target: Receptor-interacting serine/threonine-protein kinase 2 (Homo sapiens, UniProt O43353)
Chain of Receptor-interacting serine/threonine-protein kinase 2 (O43353 whole entry): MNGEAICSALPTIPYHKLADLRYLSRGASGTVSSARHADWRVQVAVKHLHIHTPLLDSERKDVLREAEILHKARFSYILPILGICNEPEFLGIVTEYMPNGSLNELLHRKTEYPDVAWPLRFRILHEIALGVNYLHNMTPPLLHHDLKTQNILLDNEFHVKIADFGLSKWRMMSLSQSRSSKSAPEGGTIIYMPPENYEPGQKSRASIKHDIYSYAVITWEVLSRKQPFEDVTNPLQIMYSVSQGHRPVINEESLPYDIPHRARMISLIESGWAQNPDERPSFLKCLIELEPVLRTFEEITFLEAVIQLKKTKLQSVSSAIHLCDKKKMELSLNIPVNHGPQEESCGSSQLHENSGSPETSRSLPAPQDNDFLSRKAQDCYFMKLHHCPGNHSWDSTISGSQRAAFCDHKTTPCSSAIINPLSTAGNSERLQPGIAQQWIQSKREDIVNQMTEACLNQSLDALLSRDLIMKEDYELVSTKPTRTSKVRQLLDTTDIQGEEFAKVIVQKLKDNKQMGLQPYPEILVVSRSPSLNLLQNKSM

[9] = target: Mitogen-activated protein kinase 8 (Homo sapiens, UniProt P45983)
Chain of Mitogen-activated protein kinase 8 (P45983 whole entry): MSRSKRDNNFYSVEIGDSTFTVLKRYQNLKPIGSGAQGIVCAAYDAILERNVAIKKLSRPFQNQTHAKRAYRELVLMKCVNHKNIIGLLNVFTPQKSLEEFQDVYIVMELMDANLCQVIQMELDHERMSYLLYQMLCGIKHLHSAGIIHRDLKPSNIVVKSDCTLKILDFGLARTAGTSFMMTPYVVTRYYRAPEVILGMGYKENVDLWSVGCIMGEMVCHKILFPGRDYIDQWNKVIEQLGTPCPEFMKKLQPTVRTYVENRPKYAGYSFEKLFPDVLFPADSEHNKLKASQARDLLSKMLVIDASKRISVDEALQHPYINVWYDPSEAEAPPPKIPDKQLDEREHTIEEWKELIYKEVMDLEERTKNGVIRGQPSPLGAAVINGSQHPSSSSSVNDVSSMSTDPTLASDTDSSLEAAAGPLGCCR

[10] = target: T4, Mitogen-activated protein kinase kinase kinase 2 (Homo sapiens, UniProt Q9Y2U5)
T4 sequence (Q9Y2U5 whole entry): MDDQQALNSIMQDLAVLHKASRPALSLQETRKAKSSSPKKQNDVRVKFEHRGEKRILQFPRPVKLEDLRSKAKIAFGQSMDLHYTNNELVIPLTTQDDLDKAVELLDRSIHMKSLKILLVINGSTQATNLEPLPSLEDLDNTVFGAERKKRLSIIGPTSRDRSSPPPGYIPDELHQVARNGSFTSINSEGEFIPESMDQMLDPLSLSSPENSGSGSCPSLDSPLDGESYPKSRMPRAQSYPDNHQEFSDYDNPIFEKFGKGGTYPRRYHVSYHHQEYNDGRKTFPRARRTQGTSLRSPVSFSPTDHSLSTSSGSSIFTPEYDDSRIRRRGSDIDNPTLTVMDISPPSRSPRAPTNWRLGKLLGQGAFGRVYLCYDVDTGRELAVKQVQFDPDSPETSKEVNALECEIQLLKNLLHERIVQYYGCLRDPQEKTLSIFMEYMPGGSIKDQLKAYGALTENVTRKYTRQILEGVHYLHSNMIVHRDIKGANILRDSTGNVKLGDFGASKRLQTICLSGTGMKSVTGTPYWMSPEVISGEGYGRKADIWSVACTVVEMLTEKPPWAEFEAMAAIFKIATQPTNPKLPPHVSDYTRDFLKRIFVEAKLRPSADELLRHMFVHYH

Structure (SMILES) | Kd [1] | Kd (TGF-beta receptor type-2) | Kd (Wee1-like protein kinase) | Kd [2] | Kd [3] | Kd [4] | Kd [5] | Kd [6] | Kd [7] | Kd [8] | Kd [9] | Kd [10]
Cc1c(NC(=O)OC[C@@H]2COCCN2)cn2ncnc(Nc3ccc4c(cnn4Cc4cccc(F)c4)c3)c12 [AC-480] | 5.93 µM | > 30 µM (inactive) | > 30 µM (inactive) | > 30 µM (inactive) | > 30 µM (inactive) | > 30 µM (inactive) | > 30 µM (inactive) | > 30 µM (inactive) | > 30 µM (inactive) | > 30 µM (inactive) | > 30 µM (inactive) | > 30 µM (inactive)
CCc1cc2c(cc1N1CCC(N3CCOCC3)CC1)C(C)(C)c1[nH]c3cc(C#N)ccc3c1C2=O [ALECTINIB] | > 30 µM (inactive) | > 30 µM (inactive) | > 30 µM (inactive) | 0.271 µM | > 30 µM (inactive) | > 30 µM (inactive) | > 30 µM (inactive) | > 30 µM (inactive) | > 30 µM (inactive) | > 30 µM (inactive) | > 30 µM (inactive) | > 30 µM (inactive)
COc1ccc2c(OCc3nnc4ccc(-c5ccccc5)nn34)ccnc2c1 [AMG-208] | > 30 µM (inactive) | > 30 µM (inactive) | > 30 µM (inactive) | > 30 µM (inactive) | > 30 µM (inactive) | > 30 µM (inactive) | > 30 µM (inactive) | > 30 µM (inactive) | > 30 µM (inactive) | > 30 µM (inactive) | > 30 µM (inactive) | > 30 µM (inactive)
Cc1cc(Nc2nc(N[C@@H](C)c3ncc(F)cn3)ncc2Cl)n[nH]1 [AZD-1480] | > 30 µM (inactive) | > 30 µM (inactive) | > 30 µM (inactive) | > 30 µM (inactive) | 0.861 µM (active) | > 30 µM (inactive) | > 30 µM (inactive) | > 30 µM (inactive) | > 30 µM (inactive) | > 30 µM (inactive) | > 30 µM (inactive) | > 30 µM (inactive)
COc1ccc(-c2ccc3ncc4c(c3c2)n(-c2ccc(N3CCNCC3)c(C(F)(F)F)c2)c(=O)n4C)cn1 [BGT-226 FREE BASE] | > 30 µM (inactive) | > 30 µM (inactive) | > 30 µM (inactive) | > 30 µM (inactive) | > 30 µM (inactive) | 0.922 µM (active) | > 30 µM (inactive) | > 30 µM (inactive) | > 30 µM (inactive) | > 30 µM (inactive) | > 30 µM (inactive) | > 30 µM (inactive)
COc1cccc(Nc2ncnn3ccc(CN4CC[C@@H](N)[C@H](O)C4)c23)c1 [BMS-690514] | 0.972 µM (active) | > 30 µM (inactive) | > 30 µM (inactive) | > 30 µM (inactive) | > 30 µM (inactive) | 3.29 µM (active) | 1.41 µM (active) | 0.795 µM (active) | > 30 µM (inactive) | > 30 µM (inactive) | > 30 µM (inactive) | 1.05 µM (active)
COc1cc2nccc(Oc3ccc(NC(=O)C4(C(=O)Nc5ccc(F)cc5)CC4)cc3)c2cc1OC [CABOZANTINIB] | 2.39 µM (active) | > 30 µM (inactive) | > 30 µM (inactive) | > 30 µM (inactive) | > 30 µM (inactive) | > 30 µM (inactive) | > 30 µM (inactive) | 0.56 µM (active) | > 30 µM (inactive) | 0.767 µM (active) | > 30 µM (inactive) | > 30 µM (inactive)
COc1cc2ncnc(Nc3ccc(F)c(Cl)c3)c2cc1NC(=O)/C=C/CN1CCCCC1 [DACOMITINIB ANHYDROUS] | > 30 µM (inactive) | > 30 µM (inactive) | > 30 µM (inactive) | > 30 µM (inactive) | > 30 µM (inactive) | > 30 µM (inactive) | > 30 µM (inactive) | > 30 µM (inactive) | > 30 µM (inactive) | 0.988 µM (active) | > 30 µM (inactive) | > 30 µM (inactive)
CC[C@@](C)(Nc1ccnc(-c2c[nH]c3ncccc23)n1)C(=O)NCC(F)(F)F [DECERNOTINIB] | > 30 µM (inactive) | > 30 µM (inactive) | > 30 µM (inactive) | > 30 µM (inactive) | > 30 µM (inactive) | > 30 µM (inactive) | 4.25 µM (active) | > 30 µM (inactive) | > 30 µM (inactive) | > 30 µM (inactive) | > 30 µM (inactive) | 4.45 µM (active)
COc1cc(Nc2ncc(F)c(Nc3ccc4c(n3)N(COP(=O)(O)O)C(=O)C(C)(C)O4)n2)cc(OC)c1OC [FOSTAMATINIB] | > 30 µM (inactive) | > 30 µM (inactive) | > 30 µM (inactive) | > 30 µM (inactive) | > 30 µM (inactive) | > 30 µM (inactive) | > 30 µM (inactive) | > 30 µM (inactive) | > 30 µM (inactive) | > 30 µM (inactive) | 2.01 µM (active) | > 30 µM (inactive)
Cc1c(Cn2c(C)nc3c(C(=O)O)cc(N4CCOCC4)cc32)cccc1C(F)(F)F [GSK-2636771] | > 30 µM (inactive) | > 30 µM (inactive) | > 30 µM (inactive) | > 30 µM (inactive) | > 30 µM (inactive) | > 30 µM (inactive) | > 30 µM (inactive) | > 30 µM (inactive) | > 30 µM (inactive) | > 30 µM (inactive) | > 30 µM (inactive) | > 30 µM (inactive)
C#Cc1cccc(Nc2ncnc3cc4c(cc23)OCCOCCOCCO4)c1 [ICOTINIB] | > 30 µM (inactive) | > 30 µM (inactive) | > 30 µM (inactive) | > 30 µM (inactive) | > 30 µM (inactive) | > 30 µM (inactive) | > 30 µM (inactive) | > 30 µM (inactive) | > 30 µM (inactive) | 2.63 µM (active) | > 30 µM (inactive) | > 30 µM (inactive)
COc1cc2ncnc3c2cc1OCCCCCN(C)Cc1ccc(Br)cc1N3 [JNJ-26483327] | > 30 µM (inactive) | > 30 µM (inactive) | > 30 µM (inactive) | > 30 µM (inactive) | > 30 µM (inactive) | > 30 µM (inactive) | > 30 µM (inactive) | > 30 µM (inactive) | > 30 µM (inactive) | 0.39 µM (active) | > 30 µM (inactive) | > 30 µM (inactive)

Reference: ChEMBL document CHEMBL3991601, “The target landscape of clinical kinase drugs” (Science, 2017)
